Data published in patent EP3590935A1, “FUSED IMIDAZOLIUM DERIVATIVES FOR USE IN THE TREATMENT OF COLORECTAL CANCER” (Deutsches Krebsforschungszentrum, Stiftung des öffentlichen …, priority 2018, dated 2020).
Entries after “also recorded” stand apart in the source; their conditions may differ.

Assays:
[1] = system: CMS1 (HCT116, RKO, LoVo, SNU-C2A, LIM2405, WiDr) and CMS2 (CaCo2, HT55, CL14, SW403, GP2d, HCA24) cell lines; assay: Drug response curves (viability, AUC) in a panel of CMS1 and CMS2 cell lines; format: cell-based; settings: 72 h; 6 CMS1 and 6 CMS2 cell lines
From the text: The present invention will now be further described in the following examples with reference to the accompanying figures and sequences, nevertheless, without being limited thereto. For the purposes of the present invention, all references as cited herein are incorporated by reference in their entireties. In the Figures: • Figure 1: Classification of colorectal cancer cell lines into consensus molecular subtypes (CMS). • (A) Workflow of data collection and subtype classification. Expression data of CRC cell lines were retrieved from six publicly available datasets. For each dataset, the CMS of every cancer cell line was separately identified using the R package 'CMSclassifier'. The CMS that was determined by the majority of datasets was then considered as the consensus. Finally, genomic data from CCLE and COSMIC were used to analyse CMS specific distributions of mutations and copy number alterations. • (B) Distribution of CRC cell lines to different CMS. […] Drug response data from a large screen performed by Iorio et al. was combined with the CMS classification of CRC cell lines to identify differential drug effects between CMS1 and CMS2 cell lines. […] Cell lines were treated with increasing drug concentrations for 72 h. […] The CMS1 cell lines RKO and HCT116 and the CMS2 cell lines HT55 and CaCo2 were treated with increasing concentrations of YM155. Induction of apoptosis was measured by FACS after staining with APC Annexin V and 7-AAD. […] Data are shown as mean value ± s.e.m. of 3-4 independent replicates. Cell lysates were additionally analyzed by PARP and CASP8 immunoblot. β-actin serves as a loading control. […] CMS1 and 2 cell lines were treated with increasing concentrations of the Bcl2 inhibitor navitoclax for 72 h. […] The CMS1 cells lines RKO and HCT116 were treated with different concentrations of YM155 for 48 h and the expression of survivin was measured by qPCR. […] (E) HCT116, RKO, HT55 and CaCo2 cells were treated with 10 nM of YM155 for 24 h, after which global expression was determined by microarray analysis. […]

[2] = system: CMS1 and CMS2 CRC cell lines; assay: Analysis of public drug screen data (Iorio et al.): viability effect (AUC) in CMS-classified CRC cell lines; format: cell-based; settings: 8 CMS1 and 16 CMS2 CRC cell lines, 256 drugs, 2016
From the text: The present invention will now be further described in the following examples with reference to the accompanying figures and sequences, nevertheless, without being limited thereto. For the purposes of the present invention, all references as cited herein are incorporated by reference in their entireties. In the Figures: • Figure 1: Classification of colorectal cancer cell lines into consensus molecular subtypes (CMS). • (A) Workflow of data collection and subtype classification. Expression data of CRC cell lines were retrieved from six publicly available datasets. For each dataset, the CMS of every cancer cell line was separately identified using the R package 'CMSclassifier'. The CMS that was determined by the majority of datasets was then considered as the consensus. […] Induction of apoptosis was measured by FACS after staining with APC Annexin V and 7-AAD. […] Cell lysates were additionally analyzed by PARP and CASP8 immunoblot. β-actin serves as a loading control. […] The CMS1 cells lines RKO and HCT116 were treated with different concentrations of YM155 for 48 h and the expression of survivin was measured by qPCR. […] (E) HCT116, RKO, HT55 and CaCo2 cells were treated with 10 nM of YM155 for 24 h, after which global expression was determined by microarray analysis. […]

[3] = system: CMS1 cell lines HCT116 and RKO; assay: Long-term proliferation assay; format: cell-based; settings: CMS1 (HCT116, RKO) versus CMS2
[4] = system: CMS1 cell lines RKO and HCT116 and the CMS2 cell lines HT55 and CaCo2; assay: Apoptosis by flow cytometry (APC Annexin V and 7-AAD); format: cell-based; settings: increasing concentrations; CMS1 (RKO, HCT116) versus CMS2 (HT55, CaCo2)
From the text: (§1) The present invention will now be further described in the following examples with reference to the accompanying figures and sequences, nevertheless, without being limited thereto. For the purposes of the present invention, all references as cited herein are incorporated by reference in their entireties. In the Figures: • Figure 1: Classification of colorectal cancer cell lines into consensus molecular subtypes (CMS). • (A) Workflow of data collection and subtype classification. Expression data of CRC cell lines were retrieved from six publicly available datasets. For each dataset, the CMS of every cancer cell line was separately identified using the R package 'CMSclassifier'. The CMS that was determined by the majority of datasets was then considered as the consensus. […] Heatmap showing the viability effect of YM155 on individual CMS1 and CMS2 cell lines within the screen (blue indicates a low viability as measured by the AUC). • (C-D) Validation of YM155 as a selective drug in CMS1 colorectal cancer. […] Induction of apoptosis was measured by FACS after staining with APC Annexin V and 7-AAD. […] Cell lysates were additionally analyzed by PARP and CASP8 immunoblot. β-actin serves as a loading control. […] The CMS1 cells lines RKO and HCT116 were treated with different concentrations of YM155 for 48 h and the expression of survivin was measured by qPCR. […]

[5] = system: PARP and CASP3; assay: Immunoblot of PARP and caspase cleavage; format: cell-based; settings: cell lysates; CMS1 versus CMS2 cell lines
[6] = system: survivin; assay: Survivin transcript (qPCR) and protein levels after treatment; format: cell-based; settings: four CRC cell lines
From the text: as §1

[7] = system: HCT116, RKO, HT55 and CaCo2 cells; assay: Global expression analysis by microarray after treatment; format: cell-based; settings: 10 nM, 24 h; CMS1 versus CMS2 cell lines
From the text: as §1

[8] = system: HCT116 and HT55; assay: Single knockout validation (SLC35F2, CCDC22, WASHC4, SNX17): drug-induced apoptosis by FACS; format: cell-based
From the text: as §1

[9] = system: solid tumours; settings: phase I and II trials, solid non-CRC tumours; cited from earlier work

SMILES	sensitivity of CMS1 versus CMS2 cell lines (dose response curves, comparison of AUCs) [1]	differential effect between CMS1 and 2 (viability effect, AUC) [2]	higher sensitivity of CMS1 cell lines [3]	induction of apoptosis (percentage of apoptotic cells) [4]	cleavage of PARP and CASP3 [5]	protein levels of survivin [6]	expression of survivin (transcript) ([6]; qPCR, 48 h)	global expression [7]	effect of candidate gene knockout on drug-induced apoptosis ([8]; HCT116 (CMS1))	effect of candidate gene knockout on drug sensitivity ([8]; HT55 (CMS2))	clinical benefit / efficacy [9]	tolerability / toxicity profile [9]
O=c1[nH]cc(F)c(=O)[nH]1 [5-fluorouracil]	do not show a different viability effect in CMS1 and CMS2 colorectal cancer; also recorded: no difference in response rates could be detected between CMS1 and CMS2											
COCCn1c2c([n+](Cc3cnccn3)c1C)C(=O)c1ccccc1C2=O [YM155, 11-(2-methoxyethyl)-2-methyl-4,9-dioxo-3-(pyrazin-2-ylmethyl)-4,9-dihydro-1H-naphtho(2,3-d)imidazolium bromide]	significantly higher vulnerability of CMS1 colorectal cancer; also recorded: significantly more sensitive	selective effect on CMS1 cancer; also recorded: strongest differential effect between CMS1 and 2	approximately 100 fold	Apoptosis can be measured at lower concentrations in CMS1 cell lines; also recorded: apoptosis was induced in CMS1 cell lines at significantly lower concentrations	detected at low concentrations in CMS1 but not CMS2 cell lines; also recorded: occurred at lower concentrations in RKO compared to CaCo2	protein levels of survivin are only reduced at high concentrations	expression of survivin is only repressed in RKO cells	global expression was dynamically reshaped upon treatment in CMS1 cell lines	All candidate genes lead to resistance to YM155 induced apoptosis at different concentrations in HCT116; also recorded: resistance against YM155 induced apoptosis in HCT116	only SLC35F2 knockout mediates resistance in HT55; also recorded: did not change YM155 sensitivity in HT55	efficacy results are mixed; also recorded: failed to show clinical benefit; also recorded: no clinical benefit was observed	safe and good tolerability and favourable toxicity profile
CC1(C)CCC(c2ccc(Cl)cc2)=C(CN2CCN(c3ccc(C(=O)NS(=O)(=O)c4ccc(N[C@H](CCN5CCOCC5)CSc5ccccc5)c(S(=O)(=O)C(F)(F)F)c4)cc3)CC2)C1 [navitoclax]	does not show a significant difference between CMS1 and CMS2; also recorded: no difference in navitoclax sensitivity between CMS1 and CMS2 cell lines											
